US10253052B2, “HBED-bisphosphonates, radiometal conjugates and their use as theranostic agents” (Five Eleven Pharma Inc., priority 2015, dated 2019)

Legend:
[1] = In vivo biodistribution in mice; design: species or system normal CD-1 male mice; conditions: for bone to blood ratio / bone to muscle ratio / Biodistribution: Blood / Biodistribution: Bone / Biodistribution: Brain / Biodistribution: Heart / Biodistribution: Kidney / Biodistribution: Liver / Biodistribution: Lung / Biodistribution: Muscle / Biodistribution: Pancreas / Biodistribution: Skin / Biodistribution: Spleen: iv
In short: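 Normal male CD-1 mice (25-30 g) received 20-30 μCi of ^68Ga-labelled tracer or [^18F]NaF intravenously and were sacrificed at 2, 30, 60 and 120 min. Harvested organs, with tibia and femur as bone, were weighed and gamma-counted; uptake is expressed as % ID/g wet tissue.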

[2] = Micro-PET imaging in normal mice; format: in vivo, normal CD-1 male mice; conditions: 15 min scan at 60 min post-injection
Description: [^68Ga]1a, [^68Ga]BPAMD and [^18F]NaF were tested in normal CD-1 male mice. [^68Ga]1g was tested in PSMA expressing LNCaP tumor bearing nude mice. Mice received 300-500 uCi radiotracer through a tail vein injection. PET imaging was performed under isoflurane anaesthesia (2% isoflurane, 1.5 L/min oxygen). The microPET imaging was performed with a small animal PET (Mosaic by Phillips, USA). During PET measurements, the animals were placed in the prone position. At 60 min post injection of the radiotracer, data acquisition was performed for 15 min.

[3] = In vitro binding to hydroxyapatite; conditions: 20 mg hydroxyapatite in saline, 10 min at room temperature
In short: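 Hydroxyapatite was pre-incubated 24 h in isotonic saline, then ^68Ga-labelled compound (1 μCi) was added and incubated 10 min at room temperature. After centrifugation and two saline washes, gamma counting of supernatants and solid gave percent ^68Ga bound to hydroxyapatite.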

Compound: O=C(O)CN1CCN(CC(=O)O)CCN(CC(=O)NC(P(=O)(O)O)P(=O)(O)O)CCN(CC(=O)O)CC1.[68Ga] [[^68Ga]BPAMD, reference compound]
- bone to blood ratio ([1]; 2 min): 0.8
- bone to muscle ratio ([1]; 2 min): 4.3
- Biodistribution: Blood ([1]; 2 min post injection): 9.45 ± 0.55 % dose/g
- Biodistribution: Bone ([1]; 2 min post injection): 7.07 ± 0.94 % dose/g
- Biodistribution: Brain ([1]; 2 min post injection): 0.26 ± 0.01 % dose/g
- Biodistribution: Heart ([1]; 2 min post injection): 2.74 ± 0.23 % dose/g
- Biodistribution: Kidney ([1]; 2 min post injection): 22.1 ± 8.80 % dose/g
- Biodistribution: Liver ([1]; 2 min post injection): 1.92 ± 0.31 % dose/g
- Biodistribution: Lung ([1]; 2 min post injection): 4.58 ± 0.36 % dose/g
- Biodistribution: Muscle ([1]; 2 min post injection): 1.63 ± 0.35 % dose/g
- Biodistribution: Pancreas ([1]; 2 min post injection): 1.73 ± 0.11 % dose/g
- Biodistribution: Skin ([1]; 2 min post injection): 2.57 ± 0.53 % dose/g
- Biodistribution: Spleen ([1]; 2 min post injection): 1.90 ± 0.14 % dose/g
- bone to blood ratio ([1]; 30 min): 10
- bone to muscle ratio ([1]; 30 min): 19
- Biodistribution: Blood ([1]; 30 min (0.5 hr) post injection): 1.02 ± 0.19 % dose/g
- Biodistribution: Bone ([1]; 30 min (0.5 hr) post injection): 10.5 ± 0.6 % dose/g
- Biodistribution: Brain ([1]; 30 min (0.5 hr) post injection): 0.06 ± 0.02 % dose/g
- Biodistribution: Heart ([1]; 30 min (0.5 hr) post injection): 0.29 ± 0.02 % dose/g
- Biodistribution: Kidney ([1]; 30 min (0.5 hr) post injection): 1.46 ± 0.19 % dose/g
- Biodistribution: Liver ([1]; 30 min (0.5 hr) post injection): 0.22 ± 0.02 % dose/g
- Biodistribution: Lung ([1]; 30 min (0.5 hr) post injection): 0.50 ± 0.16 % dose/g
- Biodistribution: Muscle ([1]; 30 min (0.5 hr) post injection): 0.55 ± 0.11 % dose/g
- Biodistribution: Pancreas ([1]; 30 min (0.5 hr) post injection): 0.27 ± 0.14 % dose/g
- Biodistribution: Skin ([1]; 30 min (0.5 hr) post injection): 0.39 ± 0.15 % dose/g
- Biodistribution: Spleen ([1]; 30 min (0.5 hr) post injection): 0.22 ± 0.14 % dose/g
- bone to blood ratio ([1]; 60 min): 10
- bone to muscle ratio ([1]; 60 min): 30
- Biodistribution: Blood ([1]; 60 min (1 hr) post injection): 0.93 ± 0.06 % dose/g
- Biodistribution: Bone ([1]; 60 min (1 hr) post injection): 9.21 ± 0.90 % dose/g
- Biodistribution: Brain ([1]; 60 min (1 hr) post injection): 0.04 ± 0.00 % dose/g
- Biodistribution: Heart ([1]; 60 min (1 hr) post injection): 0.37 ± 0.06 % dose/g
- Biodistribution: Kidney ([1]; 60 min (1 hr) post injection): 2.88 ± 1.51 % dose/g
- Biodistribution: Liver ([1]; 60 min (1 hr) post injection): 0.25 ± 0.03 % dose/g
- Biodistribution: Lung ([1]; 60 min (1 hr) post injection): 0.51 ± 0.09 % dose/g
- Biodistribution: Muscle ([1]; 60 min (1 hr) post injection): 0.31 ± 0.04 % dose/g
- Biodistribution: Pancreas ([1]; 60 min (1 hr) post injection): 0.30 ± 0.02 % dose/g
- Biodistribution: Skin ([1]; 60 min (1 hr) post injection): 0.60 ± 0.08 % dose/g
- Biodistribution: Spleen ([1]; 60 min (1 hr) post injection): 0.21 ± 0.02 % dose/g
- bone to blood ratio ([1]; 120 min): 11
- bone to muscle ratio ([1]; 120 min): 33
- Biodistribution: Blood ([1]; 120 min post injection): 0.90 ± 0.41 % dose/g
- Biodistribution: Bone ([1]; 120 min post injection): 9.62 ± 0.71 % dose/g
- Biodistribution: Brain ([1]; 120 min post injection): 0.03 ± 0.01 % dose/g
- Biodistribution: Heart ([1]; 120 min post injection): 0.26 ± 0.07 % dose/g
- Biodistribution: Kidney ([1]; 120 min post injection): 1.09 ± 0.26 % dose/g
- Biodistribution: Liver ([1]; 120 min post injection): 0.31 ± 0.11 % dose/g
- Biodistribution: Lung ([1]; 120 min post injection): 0.45 ± 0.10 % dose/g
- Biodistribution: Muscle ([1]; 120 min post injection): 0.29 ± 0.06 % dose/g
- Biodistribution: Pancreas ([1]; 120 min post injection): 0.33 ± 0.07 % dose/g
- Biodistribution: Skin ([1]; 120 min post injection): 0.55 ± 0.04 % dose/g
- Biodistribution: Spleen ([1]; 120 min post injection): 0.25 ± 0.08 % dose/g
- Biodistribution result in words (organ uptake, retention, excretion) ([1]; normal mice after iv injection): less bone uptake and retention
- Micro-PET localization (in words) [2]: localized in the spines of mice
- Hydroxyapatite Binding (%) [3]: 90.6 ± 6.0%

Compound: O=C([O-])CN(CCN(CC(=O)[O-])Cc1cc(CCC(=O)N[C@@H](CC(=O)O)C(=O)O)ccc1[O-])Cc1cc(CCC(=O)NC(P(=O)(O)O)P(=O)(O)O)ccc1[O-].[68Ga+3] [[^68Ga]1e]
- bone to blood ratio ([1]; 2 min): 1
- bone to muscle ratio ([1]; 2 min): 5
- Biodistribution: Blood ([1]; 2 min post injection): 8.31 ± 0.57 % dose/g
- Biodistribution: Bone ([1]; 2 min post injection): 8.82 ± 0.77 % dose/g
- Biodistribution: Brain ([1]; 2 min post injection): 0.20 ± 0.04 % dose/g
- Biodistribution: Heart ([1]; 2 min post injection): 2.55 ± 0.06 % dose/g
- Biodistribution: Kidney ([1]; 2 min post injection): 24.8 ± 3.02 % dose/g
- Biodistribution: Liver ([1]; 2 min post injection): 1.90 ± 0.13 % dose/g
- Biodistribution: Lung ([1]; 2 min post injection): 4.00 ± 0.20 % dose/g
- Biodistribution: Muscle ([1]; 2 min post injection): 1.71 ± 0.19 % dose/g
- Biodistribution: Pancreas ([1]; 2 min post injection): 1.27 ± 0.07 % dose/g
- Biodistribution: Skin ([1]; 2 min post injection): 2.54 ± 0.26 % dose/g
- Biodistribution: Spleen ([1]; 2 min post injection): 1.72 ± 0.19 % dose/g
- bone to blood ratio ([1]; 30 min): 29
- bone to muscle ratio ([1]; 30 min): 67
- Biodistribution: Blood ([1]; 30 min (0.5 hr) post injection): 0.57 ± 0.12 % dose/g
- Biodistribution: Bone ([1]; 30 min (0.5 hr) post injection): 16.5 ± 0.56 % dose/g
- Biodistribution: Brain ([1]; 30 min (0.5 hr) post injection): 0.02 ± 0.01 % dose/g
- Biodistribution: Heart ([1]; 30 min (0.5 hr) post injection): 0.26 ± 0.04 % dose/g
- Biodistribution: Kidney ([1]; 30 min (0.5 hr) post injection): 2.26 ± 0.27 % dose/g
- Biodistribution: Liver ([1]; 30 min (0.5 hr) post injection): 0.27 ± 0.02 % dose/g
- Biodistribution: Lung ([1]; 30 min (0.5 hr) post injection): 0.42 ± 0.08 % dose/g
- Biodistribution: Muscle ([1]; 30 min (0.5 hr) post injection): 0.25 ± 0.03 % dose/g
- Biodistribution: Pancreas ([1]; 30 min (0.5 hr) post injection): 0.17 ± 0.05 % dose/g
- Biodistribution: Skin ([1]; 30 min (0.5 hr) post injection): 0.86 ± 0.22 % dose/g
- Biodistribution: Spleen ([1]; 30 min (0.5 hr) post injection): 0.19 ± 0.02 % dose/g
- bone to blood ratio ([1]; 60 min): 138
- bone to muscle ratio ([1]; 60 min): 258
- Biodistribution: Blood ([1]; 60 min (1 hr) post injection): 0.11 ± 0.02 % dose/g
- Biodistribution: Bone ([1]; 60 min (1 hr) post injection): 14.9 ± 1.45 % dose/g
- Biodistribution: Brain ([1]; 60 min (1 hr) post injection): 0.01 ± 0.00 % dose/g
- Biodistribution: Heart ([1]; 60 min (1 hr) post injection): 0.08 ± 0.00 % dose/g
- Biodistribution: Kidney ([1]; 60 min (1 hr) post injection): 2.12 ± 0.55 % dose/g
- Biodistribution: Liver ([1]; 60 min (1 hr) post injection): 0.14 ± 0.01 % dose/g
- Biodistribution: Lung ([1]; 60 min (1 hr) post injection): 0.15 ± 0.01 % dose/g
- Biodistribution: Muscle ([1]; 60 min (1 hr) post injection): 0.06 ± 0.00 % dose/g
- Biodistribution: Pancreas ([1]; 60 min (1 hr) post injection): 0.06 ± 0.01 % dose/g
- Biodistribution: Skin ([1]; 60 min (1 hr) post injection): 0.12 ± 0.01 % dose/g
- Biodistribution: Spleen ([1]; 60 min (1 hr) post injection): 0.09 ± 0.01 % dose/g
- bone to blood ratio ([1]; 120 min): 230
- bone to muscle ratio ([1]; 120 min): 411
- Biodistribution: Blood ([1]; 120 min post injection): 0.08 ± 0.02 % dose/g
- Biodistribution: Bone ([1]; 120 min post injection): 17.6 ± 2.61 % dose/g
- Biodistribution: Brain ([1]; 120 min post injection): 0.01 ± 0.01 % dose/g
- Biodistribution: Heart ([1]; 120 min post injection): 0.06 ± 0.01 % dose/g
- Biodistribution: Kidney ([1]; 120 min post injection): 1.41 ± 0.28 % dose/g
- Biodistribution: Liver ([1]; 120 min post injection): 0.14 ± 0.02 % dose/g
- Biodistribution: Lung ([1]; 120 min post injection): 0.12 ± 0.02 % dose/g
- Biodistribution: Muscle ([1]; 120 min post injection): 0.04 ± 0.01 % dose/g
- Biodistribution: Pancreas ([1]; 120 min post injection): 0.04 ± 0.01 % dose/g
- Biodistribution: Skin ([1]; 120 min post injection): 0.12 ± 0.03 % dose/g
- Biodistribution: Spleen ([1]; 120 min post injection): 0.06 ± 0.01 % dose/g
- Hydroxyapatite Binding (%) [3]: 95.8 ± 0.9%
